These results are taken from PMC9286623.

This series in a line: head-to-tail macrolactamisation of side-chain-protected linear peptides (crude from 2-ClTrt resin, TFE cleavage); DEPBT (2-2.5 equiv), NEt3 (10-12 equiv), 24 h; AcOH quench, prep HPLC. To be noted: MeCN with <1-10% DMSO (3i: 5% DMF in MeCN), 2.0 mM, 25.0 °C.

On to `Cc1c(C)c(S(=O)(=O)NC(=N)NCCC[C@@H]2NC(=O)[C@H](C)NC(=O)[C@H](Cc3cn(C(=O)OC(C)(C)C)c4ccccc34)NC(=O)[C@H]([C@@H](C)OC(C)(C)C)NC(=O)[C@@H]3CCCN3C2=O)c(C)c2c1OC(C)(C)C2` [H-Arg(Pbf)-Pro-Thr(tBu)-Trp(Boc)-Ala-OH], for which, under “from Cc1c(C)c(S(=O)(=O)NC(=N)NCCC[C@H](N)C(=O)N2CCC[C@H]2C(=O)N[C@H](C(=O)N[C@@H](Cc2cn(C(=O)OC(C)(C)C)c3ccccc23)C(=O)N[C@@H](C)C(=O)O)[C@@H](C)OC(C)(C)C)c(C)c2c1OC(C)(C)C2, 15-membered ring, 24.0 h”, the ring closure, isolated yield is 0%.

As for `CC[C@H](C)[C@@H]1NC(=O)[C@H](CSC(c2ccccc2)(c2ccccc2)c2ccccc2)NC(=O)[C@@H]2CCCN2C(=O)[C@H](CCCCNC(=O)OC(C)(C)C)NC(=O)[C@H](COC(C)(C)C)NC(=O)[C@H](CCCCNC(=O)OC(C)(C)C)NC(=O)[C@H](CCCCNC(=O)OC(C)(C)C)NC(=O)[C@H](Cc2ccccc2)NC1=O`, the ring closure, isolated yield (from CC[C@H](C)[C@H](NC(=O)[C@H](CSC(c1ccccc1)(c1ccccc1)c1ccccc1)NC(=O)[C@@H]1CCCN1C(=O)[C@H](CCCCNC(=O)OC(C)(C)C)NC(=O)[C@H](COC(C)(C)C)NC(=O)[C@@H](N)CCCCNC(=O)OC(C)(C)C)C(=O)N[C@@H](Cc1ccccc1)C(=O)N[C@@H](CCCCNC(=O)OC(C)(C)C)C(=O)O, 24-membered ring, 24.0 h) came to 36%.

Regarding `CC[C@H](C)[C@@H]1NC(=O)[C@@H]2CCCN2C(=O)[C@H](CCCCNC(=O)OC(C)(C)C)NC(=O)[C@H](CSC(c2ccccc2)(c2ccccc2)c2ccccc2)NC(=O)[C@H](Cc2cn(C(=O)OC(C)(C)C)c3ccccc23)NC(=O)[C@H]([C@@H](C)OC(C)(C)C)NC(=O)[C@@H]2CCCN2C1=O` [H-Lys(Boc)-Pro-Ile-Pro-Thr(tBu)-Trp(Boc)-Cys(Trt)-OH], the ring closure, isolated yield (from CC[C@H](C)[C@H](NC(=O)[C@@H]1CCCN1C(=O)[C@@H](N)CCCCNC(=O)OC(C)(C)C)C(=O)N1CCC[C@H]1C(=O)N[C@H](C(=O)N[C@@H](Cc1cn(C(=O)OC(C)(C)C)c2ccccc12)C(=O)N[C@@H](CSC(c1ccccc1)(c1ccccc1)c1ccccc1)C(=O)O)[C@@H](C)OC(C)(C)C, 21-membered ring) was determined as 0%.

Take `Cc1c(C)c(S(=O)(=O)NC(=N)NCCC[C@@H]2NC(=O)[C@H](C)NC(=O)[C@H](Cc3cn(C(=O)OC(C)(C)C)c4ccccc34)NC(=O)[C@H]([C@@H](C)OC(C)(C)C)NC(=O)[C@H](CSC(c3ccccc3)(c3ccccc3)c3ccccc3)NC2=O)c(C)c2c1OC(C)(C)C2` [H-Arg(Pbf)-Cys(Trt)-Thr(tBu)-Trp(Boc)-Ala-OH]: the ring closure, isolated yield (from Cc1c(C)c(S(=O)(=O)NC(=N)NCCC[C@H](N)C(=O)N[C@@H](CSC(c2ccccc2)(c2ccccc2)c2ccccc2)C(=O)N[C@H](C(=O)N[C@@H](Cc2cn(C(=O)OC(C)(C)C)c3ccccc23)C(=O)N[C@@H](C)C(=O)O)[C@@H](C)OC(C)(C)C)c(C)c2c1OC(C)(C)C2, 15-membered ring, 24.0 h) is 16%.

`CC[C@H](C)[C@@H]1NC(=O)[C@H](COC(C)(C)C)NC(=O)[C@H](CCCCNC(=O)OC(C)(C)C)NC(=O)[C@H](Cc2ccccc2)NC(=O)[C@@H]2CCCN2C(=O)[C@H](CCCCNC(=O)OC(C)(C)C)NC(=O)[C@H](CSC(c2ccccc2)(c2ccccc2)c2ccccc2)NC(=O)[C@H](CCCCNC(=O)OC(C)(C)C)NC1=O`: the ring closure, isolated yield (from CC[C@H](C)[C@H](NC(=O)[C@H](COC(C)(C)C)NC(=O)[C@H](CCCCNC(=O)OC(C)(C)C)NC(=O)[C@H](Cc1ccccc1)NC(=O)[C@@H]1CCCN1C(=O)[C@H](CCCCNC(=O)OC(C)(C)C)NC(=O)[C@H](CSC(c1ccccc1)(c1ccccc1)c1ccccc1)NC(=O)[C@@H](N)CCCCNC(=O)OC(C)(C)C)C(=O)O, 24-membered ring, 24.0 h) stood at 22%.

With `CC[C@H](C)[C@@H]1NC(=O)[C@@H]2CCCN2C(=O)[C@H](CCCCNC(=O)OC(C)(C)C)NC(=O)[C@H](CSC(c2ccccc2)(c2ccccc2)c2ccccc2)NC(=O)[C@H](Cc2cn(C(=O)OC(C)(C)C)c3ccccc23)NC(=O)[C@H]([C@@H](C)OC(C)(C)C)NC(=O)[C@@H]2CCCN2C1=O` [H-Trp(Boc)-Cys(Trt)-Lys(Boc)-Pro-Ile-Pro-Thr(tBu)-OH], the ring closure, isolated yield (from CC[C@H](C)[C@H](NC(=O)[C@@H]1CCCN1C(=O)[C@H](CCCCNC(=O)OC(C)(C)C)NC(=O)[C@H](CSC(c1ccccc1)(c1ccccc1)c1ccccc1)NC(=O)[C@@H](N)Cc1cn(C(=O)OC(C)(C)C)c2ccccc12)C(=O)N1CCC[C@H]1C(=O)N[C@H](C(=O)O)[C@@H](C)OC(C)(C)C, 21-membered ring, 24.0 h) stood at 12%.

In the case of `Cc1c(C)c(S(=O)(=O)NC(=N)NCCC[C@@H]2NC(=O)[C@H](C)NC(=O)[C@H](Cc3cn(C(=O)OC(C)(C)C)c4ccccc34)NC(=O)[C@H]([C@@H](C)OC(C)(C)C)NC(=O)[C@H](C)NC2=O)c(C)c2c1OC(C)(C)C2` [H-Arg(Pbf)-Ala-Thr(tBu)-Trp(Boc)-Ala-OH], the ring closure, isolated yield (from Cc1c(C)c(S(=O)(=O)NC(=N)NCCC[C@H](N)C(=O)N[C@@H](C)C(=O)N[C@H](C(=O)N[C@@H](Cc2cn(C(=O)OC(C)(C)C)c3ccccc23)C(=O)N[C@@H](C)C(=O)O)[C@@H](C)OC(C)(C)C)c(C)c2c1OC(C)(C)C2, 15-membered ring, 24.0 h) amounted to 27%.

Consider `CC[C@H](C)[C@@H]1NC(=O)[C@H](Cc2cn(C(=O)OC(C)(C)C)c3ccccc23)NC(=O)[C@@H]2CCCN2C(=O)[C@H](CSC(c2ccccc2)(c2ccccc2)c2ccccc2)NC(=O)[C@@H]2CCCN2C(=O)[C@H](CCCCNC(=O)OC(C)(C)C)NC(=O)[C@H]([C@@H](C)OC(C)(C)C)NC1=O` [H-Thr(tBu)-Lys(Boc)-Pro-Cys(Trt)-Pro-Trp(Boc)-Ile-OH], for which, for the setting “from CC[C@H](C)[C@H](NC(=O)[C@H](Cc1cn(C(=O)OC(C)(C)C)c2ccccc12)NC(=O)[C@@H]1CCCN1C(=O)[C@H](CSC(c1ccccc1)(c1ccccc1)c1ccccc1)NC(=O)[C@@H]1CCCN1C(=O)[C@H](CCCCNC(=O)OC(C)(C)C)NC(=O)[C@@H](N)[C@@H](C)OC(C)(C)C)C(=O)O, 21-membered ring, 24.0 h”, the ring closure, isolated yield is 29%.

For `CC(C)C[C@@H]1NC(=O)[C@H](CC(C)C)NC(=O)[C@H](CC(=O)NC(c2ccccc2)(c2ccccc2)c2ccccc2)NC(=O)[C@@H]2CCCN2C(=O)[C@@H]2CCCN2C(=O)[C@H](CSC(c2ccccc2)(c2ccccc2)c2ccccc2)NC(=O)[C@H](CC(C)C)NC(=O)[C@H](CCC(=O)OC(C)(C)C)NC1=O` [H-Glu(OtBu)-Leu-Cys(Trt)-Pro-Pro-Asn(Trt)-Leu-Leu-OH], where the note is “from CC(C)C[C@H](NC(=O)[C@H](CC(C)C)NC(=O)[C@H](CC(=O)NC(c1ccccc1)(c1ccccc1)c1ccccc1)NC(=O)[C@@H]1CCCN1C(=O)[C@@H]1CCCN1C(=O)[C@H](CSC(c1ccccc1)(c1ccccc1)c1ccccc1)NC(=O)[C@H](CC(C)C)NC(=O)[C@@H](N)CCC(=O)OC(C)(C)C)C(=O)O, 24-membered ring, 24.0 h”, the ring closure, isolated yield worked out at 26%.

Turning to `CC[C@H](C)[C@@H]1NC(=O)[C@@H]2CCCN2C(=O)[C@H](CCCCNC(=O)OC(C)(C)C)NC(=O)[C@H](CSC(c2ccccc2)(c2ccccc2)c2ccccc2)NC(=O)[C@H](Cc2cn(C(=O)OC(C)(C)C)c3ccccc23)NC(=O)[C@H]([C@@H](C)OC(C)(C)C)NC(=O)[C@@H]2CCCN2C1=O` [H-Cys(Trt)-Lys(Boc)-Pro-Ile-Pro-Thr(tBu)-Trp(Boc)-OH], the ring closure, isolated yield (from CC[C@H](C)[C@H](NC(=O)[C@@H]1CCCN1C(=O)[C@H](CCCCNC(=O)OC(C)(C)C)NC(=O)[C@@H](N)CSC(c1ccccc1)(c1ccccc1)c1ccccc1)C(=O)N1CCC[C@H]1C(=O)N[C@H](C(=O)N[C@@H](Cc1cn(C(=O)OC(C)(C)C)c2ccccc12)C(=O)O)[C@@H](C)OC(C)(C)C, 21-membered ring) amounted to 0%.

In the case of `Cc1c(C)c(S(=O)(=O)NC(=N)NCCC[C@@H]2NC(=O)[C@H](C)NC(=O)[C@H](CSC(c3ccccc3)(c3ccccc3)c3ccccc3)NC(=O)[C@H]([C@@H](C)OC(C)(C)C)NC(=O)[C@H](CSC(c3ccccc3)(c3ccccc3)c3ccccc3)NC2=O)c(C)c2c1OC(C)(C)C2` [H-Arg(Pbf)-Cys(Trt)-Thr(tBu)-Cys(Trt)-Ala-OH], for the setting “from Cc1c(C)c(S(=O)(=O)NC(=N)NCCC[C@H](N)C(=O)N[C@@H](CSC(c2ccccc2)(c2ccccc2)c2ccccc2)C(=O)N[C@H](C(=O)N[C@@H](CSC(c2ccccc2)(c2ccccc2)c2ccccc2)C(=O)N[C@@H](C)C(=O)O)[C@@H](C)OC(C)(C)C)c(C)c2c1OC(C)(C)C2, 15-membered ring, 24.0 h”, the ring closure, isolated yield turned out to be 16%.

With `Cc1c(C)c(S(=O)(=O)NC(=N)NCCC[C@@H]2NC(=O)[C@H](C)NC(=O)[C@H](C)NC(=O)[C@H]([C@@H](C)OC(C)(C)C)NC(=O)[C@H](CSC(c3ccccc3)(c3ccccc3)c3ccccc3)NC2=O)c(C)c2c1OC(C)(C)C2` [H-Arg(Pbf)-Cys(Trt)-Thr(tBu)-Ala-Ala-OH], the ring closure, isolated yield (from Cc1c(C)c(S(=O)(=O)NC(=N)NCCC[C@H](N)C(=O)N[C@@H](CSC(c2ccccc2)(c2ccccc2)c2ccccc2)C(=O)N[C@H](C(=O)N[C@@H](C)C(=O)N[C@@H](C)C(=O)O)[C@@H](C)OC(C)(C)C)c(C)c2c1OC(C)(C)C2, 15-membered ring, 24.0 h) amounted to 21%.
